The source of these data is PMC7249060, “The Antiproliferative Effects of Flavonoid MAO Inhibitors on Prostate Cancer Cells” (Molecules, 2020).

One data set concerns the target T1, hMAO-A (Homo sapiens, UniProt P21397).
T1 construct: purchased Sigma-Aldrich Co. (St. Louis, MO, USA)
T1 sequence (P21397 1-527): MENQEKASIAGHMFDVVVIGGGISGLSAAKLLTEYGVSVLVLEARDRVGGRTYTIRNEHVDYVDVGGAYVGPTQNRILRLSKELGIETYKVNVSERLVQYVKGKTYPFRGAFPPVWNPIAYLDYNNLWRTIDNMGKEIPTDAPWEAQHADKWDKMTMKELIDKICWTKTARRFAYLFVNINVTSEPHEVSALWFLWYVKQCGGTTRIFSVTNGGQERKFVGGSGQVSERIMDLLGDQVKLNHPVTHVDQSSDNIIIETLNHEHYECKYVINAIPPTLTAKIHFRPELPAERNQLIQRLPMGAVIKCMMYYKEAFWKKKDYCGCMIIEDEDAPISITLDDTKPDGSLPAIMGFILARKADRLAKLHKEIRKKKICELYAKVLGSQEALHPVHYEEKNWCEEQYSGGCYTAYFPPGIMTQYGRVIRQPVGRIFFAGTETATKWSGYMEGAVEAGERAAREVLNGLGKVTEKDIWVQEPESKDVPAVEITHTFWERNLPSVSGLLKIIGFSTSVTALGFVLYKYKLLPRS
Kind of data set: Michaelis–Menten kinetics / mode of inhibition (MAO-Glow, LDS substrate). It counts as biochemical. The following applies: for Alpha parameter (mixed model of enzyme inhibition): GraphPad Prism mixed model; for mode of hMAO-A inhibition: Lineweaver–Burk, alpha analysis; for Vmax of hMAO-A with increasing inhibitor (minimum and maximum average means): inhibitor 0 to IC50 × 4. How it is done: The hMAO-A modes of inhibition by KKR21 and KKR11 were investigated using the Michaelis–Menten reaction kinetics and MAO-Glow™ assay. A negative control buffer and seven serially diluted LDS concentrations were prepared from a maximum final of 75 μM. Other negative control buffers and three different concentrations of each KKR were prepared to resemble IC50/4, IC50, and IC50 × 4 final concentrations (final KKR11 of 0.08, 0.31, and 1.24 μM, and final KKR21 of 0.005, 0.019, and 0.076 μM, respectively). Each KKR was mixed with the isozyme in a 2:1 ratio volume for a final concentration of 0.44 U/mL. The reactions were initiated by adding 37.5 μL of the prepared mixture to 12.5 μL LDS substrate in the 96-well plates. Opaque plates were incubated at 37 °C for 60 min. The enzymatic reaction was terminated by adding 50 μL RLDR to the plates and then was re-incubated for 30 min at RT. The generated ALU was read on the Bio-Tek Synergy HTX Multi-Reader.
The Vmax and Km were calculated from the averaged X and Y intercepts of Lineweaver–Burk (LWB) linear regressions that were analyzed from the Michaelis–Menten curve data. Vmax = 1/Y-intercept, Km = −1/X-intercept(2)
Inhibitor-constant (Ki) was calculated from Cheng–Prosuff’s equation Ki (comp) = IC50/(1+[S]/Km)(3)

The subject of another data set is PC3 cells. Kind of data set: Antiproliferation screen assay, resazurin, 72 h. It is filed as cell-based, human. The note with it: 50 μM. (In general: Alamar Blue is a resazurin reagent that responds to reducing activity.)
The next data set concerns LNCaP cells. Nature of the data set: Viability screen assay, resazurin, 24 h. The note with it: 50 μM, 90% viability as margin of cytotoxicity. It is filed as cell-based, human. As for the experimental part:
We examined the cytotoxic effects of all 20 synthesized KKRs on the three human PCa cell lines LNCaP, DU145, and PC3, after a 24 h exposure period. Non-toxic TAX was used for comparison. Briefly, cultured cells were seeded in black transparent bottom 96-well microplates at 50,000 cells/175-µL/well in experimental media (RPMI1640 for LNCaP, EMEM for DU145, and DMEM/F12K for PC3), supplied with 5% FBS and 1% P/S. Wells of media without cells were considered blanks and negative controls. The plates were incubated overnight at 37 °C in 5% CO2 to allow cell attachment. For each compound, a working solution of 8X KKR in sterile […] HEPES in HBSS pH buffer of 7.4 was prepared for a final concentration of 50 μM each. The three attached cell types were treated immediately with the related buffer being added to the control wells. A sterile fluorescence-based solution of the resazurin reagent of 0.5 mg/mL in HBSS was prepared. After 24 h, the cells were exposed to 15% v/v of the sterile resazurin reagent, and the plates were re-incubated for 4.5 h to allow redox reaction. All plates were read under 530/590-nm excitation/emission wavelengths using Bio-Tek Synergy HTX Multi-reader as a microplate fluorescence reader.

Where [1] appears, read: competitive model, Ki = IC50/(1 + [S]/Km).

pKi: −log10 of the molar value.

One may read the pKi as the negative decadic logarithm of the Ki, by convention in mol/L. For the molecule `COc1cc(O)c(C(=O)/C=C/c2ccc(Cl)c(Cl)c2)c(OC)c1` [KKR11, (E)-3-(3,4-dichlorophenyl)-1-(2-hydroxy-4,6-dimethoxyphenyl)prop-2-en-1-one], the negative-log Ki (pKi) at hMAO-A (Cheng–Prosuff's equation) was at least 8.13. Besides, at hMAO-A, the “Alpha parameter (mixed model of enzyme inhibition)” value was >>1; the “mode of hMAO-A inhibition” value was “reversible competitive inhibition”; the “Vmax of hMAO-A with increasing inhibitor (minimum and maximum average means)” value is 3 × 10^−6–4 × 10^−6 U/mL/h. Besides, at hMAO-A (setting [1]), the negative logarithm of the Ki (pKi) was 8.13.

On to `O=c1cc(-c2ccccc2)oc2cc(Cl)c(Cl)cc12` [KKR21, 6,7-dichloro-2-phenyl-4H-chromen-4-one], for which the pKi on hMAO-A (Cheng–Prosuff's equation) was at least 8.13. In addition, at hMAO-A, the “Alpha parameter (mixed model of enzyme inhibition)” value is listed as >>1; the “mode of hMAO-A inhibition” value was “reversible competitive inhibition”; the “Vmax of hMAO-A with increasing inhibitor (minimum and maximum average means)” value is recorded as 1.38 × 10^−6–1.43 × 10^−6 U/mL/h. Further, at hMAO-A (setting [1]), the pKi was 8.77. Further, the “antiproliferative effect in screen” value in the data set on PC3 cells is “no effects on any of the screened PCa cell models”.

Take `O=c1c(O)c(-c2ccccc2)oc2c(Cl)cc(Cl)cc12` [KKR7, 6,8-dichloro-3-hydroxy-2-phenyl-4H-chromen-4-one]: the “cytotoxicity / cell viability” value in the data set with LNCaP cells is recorded as “affected the LNCaP cells”.

`COc1cc(OC)c2c(=O)c(O)c(/C=C/c3cc(OC)c(OC)c(OC)c3)oc2c1` [KKR2A, (E)-3-hydroxy-5,7-dimethoxy-2-(3,4,5-trimethoxystyryl)-4H-chromen-4-one]: in the data set on PC3 cells, the “antiproliferative effect in screen” value is on record as “no effects on any of the screened PCa cell models”.
